According to patent US7812022B2 (GlaxoSmithKline LLC, priority 2004, dated 2010):

Legend:
ErbB2 or EGFR = target: T1, ErbB2 or EGFR; test: ErbB family substrate phosphorylation enzyme assay (HTRF), Method A or Method B; type: biochemical
T1 construct: enzymes purified from a baculovirus expression system; Reagent production was conducted essentially as described in Brignola, P. S., et al, (2002) J. Biol. Chem. 277(2): 1576-1585
Summary of the method: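 Baculovirus-expressed EGFR or ErbB2 (0.8 or 10 nM in enzyme mix) phosphorylates biotinylated Peptide C with 20 µM ATP and 0.8 µM peptide (substrate-mix levels), MnCl2, pH 7.5. Reaction ran 90 min at 20 °C with EDTA stop and HTRF anti-phosphotyrosine read. Method A: enzyme added last; Method B: 1 h enzyme–compound preincubation.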

[1] = tested on: BT474 and HN5 tumor cell lines; test: Methylene blue growth inhibition assay (cellular Method A); type: cell-based, Human; details: Homo sapiens, BT-474, 72 h, 3 days, read-out: Activity (Method): growth inhibition IC50 class
Summary of the method: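 Growth inhibition measured by methylene blue staining of biomass (OD 620) after 3 days' compound exposure at 37° C, final DMSO 0.3%. Cell lines: BT474 (10,000/well), HN5 (3,000/well) and Colo205, all in DMEM with 10% FBS; IC50 fitted by nonlinear regression against vehicle-treated wells.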

[2] = Method A: substrate mix added first, reaction started with enzyme mix
[3] = Method B: enzyme mix pre-incubated with compound 1 hour at 20° C., started with substrate mix

Row | Structure (SMILES) | IC50 [1] [nM] | Activity (Method): pIC50 class against ErbB2 or EGFR (ErbB2 or EGFR; [2]) | Activity (Method): pIC50 class against ErbB2 or EGFR (ErbB2 or EGFR; [3])
1 | CS(=O)(=O)Cc1ccc(Nc2nccc(-c3c(-c4cccc(NC(=O)c5cc(F)ccc5F)c4)nn4ccccc34)n2)cc1 [Example 53, 2,5-Difluoro-N-(3-{3-[2-({4-[(methylsulfonyl)methyl]-phenyl}amino)-4-pyrimidinyl]pyrazolo[1,5-a]pyridin-2-yl}phenyl)benzamide] | 100 to 1000 | ++ (A) (at least one pIC50 measurement greater than 6 against either ErbB2 or EGFR but no measurement greater than pIC50 of 7) | –
2 | CN1CCc2ccc(Nc3nccc(-c4c(-c5cccc(NC(=O)c6ccccc6)c5)nn5ccccc45)n3)cc2C1 [Example 63, N-[3-(3-{2-[(2-methyl-1,2,3,4-tetrahydro-7-isoquinolinyl)amino]-4-pyrimidinyl}pyrazolo[1,5-a]pyridin-2-yl)phenyl]benzamide] | < 100 | – | +++ (B) (at least one pIC50 measurement of greater than 7 against either ErbB2 or EGFR)
3 | O=C(Nc1cccc(-c2nn3ccccc3c2-c2ccnc(Nc3ccc4c(c3)CNCC4)n2)c1)c1c(F)cccc1F [Example 64, 2,6-Difluoro-N-(3-{3-[2-(1,2,3,4-tetrahydro-7-isoquinolinylamino)-4-pyrimidinyl]pyrazolo[1,5-a]pyridin-2-yl}phenyl)benzamide] | < 100 | – | +++ (B) (at least one pIC50 measurement of greater than 7 against either ErbB2 or EGFR)
4 | O=C(Nc1cccc(-c2nn3ccccc3c2-c2ccnc(Nc3ccc4cnccc4c3)n2)c1)c1c(F)cccc1F [Example 65, 2,6-Difluoro-N-(3-{3-[2-(6-isoquinolinylamino)-4-pyrimidinyl]pyrazolo[1,5-a]pyridin-2-yl}phenyl)benzamide] | > 1000 | – | ++ (B) (at least one pIC50 measurement greater than 6 against either ErbB2 or EGFR but no measurement greater than pIC50 of 7)
5 | O=C(Nc1cccc(-c2nn3ccccc3c2-c2ccnc(Nc3cccc(F)c3)n2)c1)c1cccnc1 [Example 66, N-[3-(3-{2-[(3-fluorophenyl)amino]-4-pyrimidinyl}pyrazolo[1,5-a]pyridin-2-yl)phenyl]-3-pyridinecarboxamide] | 100 to 1000 | – | ++ (B) (at least one pIC50 measurement greater than 6 against either ErbB2 or EGFR but no measurement greater than pIC50 of 7)
6 | O=C(Nc1cccc(-c2nn3ccccc3c2-c2ccnc(Nc3cccc(F)c3)n2)c1)c1ccno1 [Example 67, N-[3-(3-{2-[(3-fluorophenyl)amino]-4-pyrimidinyl}pyrazolo[1,5-a]pyridin-2-yl)phenyl]-5-isoxazolecarboxamide] | 100 to 1000 | – | +++ (B) (at least one pIC50 measurement of greater than 7 against either ErbB2 or EGFR)
7 | O=C(Nc1cccc(-c2nn3ccccc3c2-c2ccnc(Nc3cccc(F)c3)n2)c1)c1ccccc1OC(F)(F)F [Example 68, N-[3-(3-{2-[(3-fluorophenyl)amino]-4-pyrimidinyl}-pyrazolo[1,5-a]pyridin-2-yl)phenyl]-2-[(trifluoromethyl)oxy]benzamide] | 100 to 1000 | – | ++ (B) (at least one pIC50 measurement greater than 6 against either ErbB2 or EGFR but no measurement greater than pIC50 of 7)
8 | COc1ccccc1C(=O)Nc1cccc(-c2nn3ccccc3c2-c2ccnc(Nc3cccc(F)c3)n2)c1 [Example 69, N-[3-(3-{2-[(3-fluorophenyl)amino]-4-pyrimidinyl}pyrazolo[1,5-a]pyridin-2-yl)phenyl]-2-(methyloxy)benzamide] | 100 to 1000 | – | +++ (B) (at least one pIC50 measurement of greater than 7 against either ErbB2 or EGFR)
9 | Cc1cccc(C(=O)Nc2cccc(-c3nn4ccccc4c3-c3ccnc(Nc4cccc(F)c4)n3)c2)c1Cl [Example 70, 2-Chloro-N-[3-(3-{2-[(3-fluorophenyl)amino]-4-pyrimidinyl}pyrazolo[1,5-a]pyridin-2-yl)phenyl]-3-methylbenzamide] | 100 to 1000 | – | ++ (B) (at least one pIC50 measurement greater than 6 against either ErbB2 or EGFR but no measurement greater than pIC50 of 7)
10 | Cc1c(F)cccc1C(=O)Nc1cccc(-c2nn3ccccc3c2-c2ccnc(Nc3cccc(F)c3)n2)c1 [Example 71, 3-Fluoro-N-[3-(3-{2-[(3-fluorophenyl)amino]-4-pyrimidinyl}pyrazolo[1,5-a]pyridin-2-yl)phenyl]-2-methylbenzamide] | 100 to 1000 | – | ++ (B) (at least one pIC50 measurement greater than 6 against either ErbB2 or EGFR but no measurement greater than pIC50 of 7)
11 | Cc1ccc(F)c(C(=O)Nc2cccc(-c3nn4ccccc4c3-c3ccnc(Nc4cccc(F)c4)n3)c2)c1F [Example 72, 2,6-Difluoro-N-[3-(3-{2-[(3-fluorophenyl)amino]-4-pyrimidinyl}pyrazolo[1,5-a]pyridin-2-yl)phenyl]-3-methylbenzamide] | 100 to 1000 | – | ++ (B) (at least one pIC50 measurement greater than 6 against either ErbB2 or EGFR but no measurement greater than pIC50 of 7)
12 | O=C(Nc1cccc(-c2nn3ccccc3c2-c2ccnc(Nc3cccc(F)c3)n2)c1)c1ccnc(Cl)c1 [Example 73, 2-Chloro-N-[3-(3-{2-[(3-fluorophenyl)amino]-4-pyrimidinyl}pyrazolo[1,5-a]pyridin-2-yl)phenyl]-4-pyridinecarboxamide] | > 1000 | – | ++ (B) (at least one pIC50 measurement greater than 6 against either ErbB2 or EGFR but no measurement greater than pIC50 of 7)
13 | O=C(Nc1cccc(-c2nn3ccccc3c2-c2ccnc(Nc3cccc(F)c3)n2)c1)c1ccc(Cl)nc1 [Example 74, 6-Chloro-N-[3-(3-{2-[(3-fluorophenyl)amino]-4-pyrimidinyl}pyrazolo[1,5-a]pyridin-2-yl)phenyl]-3-pyridinecarboxamide] | 100 to 1000 | – | ++ (B) (at least one pIC50 measurement greater than 6 against either ErbB2 or EGFR but no measurement greater than pIC50 of 7)

More lines, main results first:

Row | IC50 [1] [nM] | Structure (SMILES) | Activity (Method): pIC50 class against ErbB2 or EGFR (ErbB2 or EGFR; [2]) | Activity (Method): pIC50 class against ErbB2 or EGFR (ErbB2 or EGFR; [3])
14 | 100 to 1000 | O=C(Nc1cccc(-c2nn3ccccc3c2-c2ccnc(Nc3cccc(F)c3)n2)c1)c1ccncc1 [Example 75, N-[3-(3-{2-[(3-Fluorophenyl)amino]-4-pyrimidinyl}pyrazolo[1,5-a]pyrindin-2-yl)phenyl]-4-pyridinecarboxamide] | – | +++ (B) (at least one pIC50 measurement of greater than 7 against either ErbB2 or EGFR)
15 | 100 to 1000 | Cc1ccsc1C(=O)Nc1cccc(-c2nn3ccccc3c2-c2ccnc(Nc3cccc(F)c3)n2)c1 [Example 77, N-[3-(3-{2-[(3-fluorophenyl)amino]-4-pyrimidinyl}pyrazolo[1,5-a]pyridin-2-yl)phenyl]-3-methyl-2-thiophenecarboxamide] | – | +++ (B) (at least one pIC50 measurement of greater than 7 against either ErbB2 or EGFR)
16 | 100 to 1000 | O=C(Nc1cccc(-c2nn3ccccc3c2-c2ccnc(Nc3cccc(F)c3)n2)c1)c1sccc1Cl [Example 79, 3-Chloro-N-[3-(3-{2-[(3-fluorophenyl)amino]-4-pyrimidinyl}pyrazolo[1,5-a]pyridin-2-yl)phenyl]-2-thiophenecarboxamide] | – | ++ (B) (at least one pIC50 measurement greater than 6 against either ErbB2 or EGFR but no measurement greater than pIC50 of 7)
17 | 100 to 1000 | O=C(Nc1cccc(-c2nn3ccccc3c2-c2ccnc(Nc3cccc(F)c3)n2)c1)c1sccc1Br [Example 80, 3-Bromo-N-[3-(3-{2-[(3-fluorophenyl)amino]-4-pyrimidinyl}pyrazolo[1,5-a]pyridin-2-yl)phenyl]-2-thiophenecarboxamide] | – | ++ (B) (at least one pIC50 measurement greater than 6 against either ErbB2 or EGFR but no measurement greater than pIC50 of 7)
18 | 100 to 1000 | O=C(Nc1cccc(-c2nn3ccccc3c2-c2ccnc(Nc3cccc(F)c3)n2)c1)c1ccsc1 [Example 81, N-[3-(3-{2-[(3-fluorophenyl)amino]-4-pyrimidinyl}pyrazolo[1,5-a]pyridin-2-yl)phenyl]-3-thiophenecarboxamide] | – | ++ (B) (at least one pIC50 measurement greater than 6 against either ErbB2 or EGFR but no measurement greater than pIC50 of 7)
19 | 100 to 1000 | Cn1cccc1C(=O)Nc1cccc(-c2nn3ccccc3c2-c2ccnc(Nc3cccc(F)c3)n2)c1 [Example 82, N-[3-(3-{2-[(3-fluorophenyl)amino]-4-pyrimidinyl}-pyrazolo[1,5-a]pyridin-2-yl)phenyl]-1-methyl-1H-pyrrole-2-carboxamide] | – | +++ (B) (at least one pIC50 measurement of greater than 7 against either ErbB2 or EGFR)
20 | 100 to 1000 | O=C(Nc1cccc(-c2nn3ccccc3c2-c2ccnc(Nc3ccon3)n2)c1)c1c(F)cccc1F [Example 85, 2,6-Difluoro-N-(3-{3-[2-(3-isoxazolylamino)-4-pyrimidinyl]pyrazolo[1,5-a]pyridin-2-yl}phenyl)benzamide] | +++ (A) (at least one pIC50 measurement of greater than 7 against either ErbB2 or EGFR) | –
21 | < 100 | N#Cc1cc(Nc2nccc(-c3c(-c4cccc(NC(=O)c5c(F)cccc5F)c4)nn4ccccc34)n2)ccc1F [Example 88] | +++ (A) (at least one pIC50 measurement of greater than 7 against either ErbB2 or EGFR) | –
